Results from ChEMBL document CHEMBL3044537, “Radiolabeling of EGCG with 131I and biodistribution in rats” (Med Chem Res, 2012).

Experiments:
[1] = system: Lung; assay: Biodistribution in Rattus norvegicus Wistar albino (rat) lung at 74 MBq/umol, iv administered 60 min post dose of non radiolabelled compound measured at 150 min; format: ADME, organism-based; conditions: in vivo, 2.5 h
[2] = Metabolic stability in Homo sapiens (human) serum at 4 hr; format: ADME; conditions: read-out: Stability
[3] = Octanol-water partition coefficient of the compound; format: physicochemical; conditions: read-out: log KOW
[4] = system: Large intestine; assay: Biodistribution in Rattus norvegicus Wistar albino (rat) large intestine at 74 MBq/umol, iv measured at 60 min; format: ADME, organism-based; conditions: in vivo, 1 h
[5] = system: Liver; assay: Biodistribution in Rattus norvegicus Wistar albino (rat) liver at 74 MBq/umol, iv measured at 60 min; format: ADME, organism-based; conditions: in vivo, 1 h
[6] = system: Lung; assay: Biodistribution in Rattus norvegicus Wistar albino (rat) lung at 74 MBq/umol, iv measured at 30 min; format: ADME, organism-based; conditions: in vivo, 0.5 h
[7] = Metabolic stability in Homo sapiens (human) serum at 2 hr; format: ADME; conditions: read-out: Stability
[8] = system: Rattus norvegicus; assay: Ratio of drug uptake in Rattus norvegicus Wistar albino (rat) lung to muscle at 74 MBq/umol, iv measured at 30 min; conditions: in vivo, 0.5 h
[9] = system: Large intestine; assay: Biodistribution in Rattus norvegicus Wistar albino (rat) large intestine at 74 MBq/umol, iv after 60 min; format: ADME, organism-based; conditions: in vivo, 1 h
[10] = system: Kidney; assay: Biodistribution in Rattus norvegicus Wistar albino (rat) kidney at 74 MBq/umol, iv after 60 min; format: ADME, organism-based; conditions: in vivo, 1 h
[11] = Metabolic stability in Homo sapiens (human) serum at 24 hr; format: ADME; conditions: read-out: Stability
[12] = system: Liver; assay: Biodistribution in Rattus norvegicus Wistar albino (rat) liver at 74 MBq/umol, iv after 60 min; format: ADME, organism-based; conditions: in vivo, 1 h
[13] = Biodistribution in Rattus norvegicus Wistar albino (rat) lung at 74 MBq/umol, iv administered 60 min post dose of non radiolabelled compound measured at 30 min; format: ADME, organism-based; conditions: read-out: Drug uptake
[14] = system: Kidney; assay: Biodistribution in Rattus norvegicus Wistar albino (rat) kidney at 74 MBq/umol, iv measured at 60 min; format: ADME, organism-based; conditions: in vivo, 1 h
[15] = system: Stomach; assay: Biodistribution in Rattus norvegicus Wistar albino (rat) stomach at 74 MBq/umol, iv measured at 60 min; format: ADME, organism-based; conditions: in vivo, 1 h
[16] = system: Stomach; assay: Biodistribution in Rattus norvegicus Wistar albino (rat) stomach at 74 MBq/umol, iv after 60 min; format: ADME, organism-based; conditions: in vivo, 1 h
[17] = system: Small intestine; assay: Biodistribution in Rattus norvegicus Wistar albino (rat) small intestine at 74 MBq/umol, iv measured at 60 min; format: ADME, organism-based; conditions: in vivo, 1 h
[18] = Ratio of drug uptake in Rattus norvegicus Wistar albino (rat) lung to blood at 74 MBq/umol, iv measured at 30 min; format: ADME, organism-based
[19] = system: Small intestine; assay: Biodistribution in Rattus norvegicus Wistar albino (rat) small intestine at 74 MBq/umol, iv after 60 min; format: ADME, organism-based; conditions: in vivo, 1 h
[20] = system: Pancreas; assay: Biodistribution in Rattus norvegicus Wistar albino (rat) pancreas at 74 MBq/umol, iv measured at 30 min; format: ADME, organism-based; conditions: in vivo, 0.5 h
[21] = Biodistribution in Rattus norvegicus Wistar albino (rat) lung at 74 MBq/umol, iv administered 60 min post dose of non radiolabelled compound measured at 60 min; format: ADME, organism-based; conditions: read-out: Drug uptake
[22] = Metabolic stability in Homo sapiens (human) serum at 3 hr; format: ADME; conditions: read-out: Stability

## O=C(O[C@@H]1Cc2c(cc(O)c([131I])c2O)O[C@@H]1c1cc(O)c(O)c(O)c1)c1cc(O)c(O)c(O)c1 [[131I]-EPIGALLOCATECHIN GALLATE]
[1]
  Drug uptake: 0.22 % ID/g
[2]
  remaining at 4 h: 84%
[3]
  logP: 1.46
[4]
  Drug uptake: 1.04 % ID/g
[5]
  Drug uptake: 0.23 % ID/g
[6]
  Drug uptake: 0.45 % ID/g
[7]
  remaining at 2 h: 87%
[8]
  Ratio: 2.69
[9]
  Drug uptake: Not Active
[10]
  Drug uptake: Not Active
[11]
  remaining at 24 h: 83%
[12]
  Drug uptake: Not Active
[13]
  tissue uptake at 0.5 h: 0.25 %ID/g
[14]
  Drug uptake: 0.37 % ID/g
[15]
  Drug uptake: 2.76 % ID/g
[16]
  Drug uptake: Not Active
[17]
  Drug uptake: 0.71 % ID/g
[18]
  Kp at 0.5 h: 0.96
[19]
  Drug uptake: Not Active
[20]
  Drug uptake: 0.32 % ID/g
[21]
  tissue uptake at 1 h: 0.23 %ID/g
[22]
  remaining at 3 h: 86%
